Measurements from PMC10763615, “Identification and engineering of potent cyclic peptides with selective or promiscuous binding through biochemical profiling and bioinformatic data analysis” (RSC Chemical Biology, 2023).
Positions of bridges follow the written chain, without caps; N, C: chain ends. Residues, ends and D or L forms follow the SMILES beside them.

Tests used:
Format in all cases: binding
[1] = molecular target: T1, FGF-R4 ECD (Homo sapiens, UniProt P22455); assay: single concentration BLI of crude peptides; conditions: crude T18 selection 1 (1:1:1) peptides, single concentration BLI (Table S4); read-out: KD (4)
T1 construct: DNA constructs for the extracellular domain (ECD) of human FGF-; HPC4 (C); made in house; host or cells: HEK 293-6E
T1 sequence (P22455 22-369 limits assumed): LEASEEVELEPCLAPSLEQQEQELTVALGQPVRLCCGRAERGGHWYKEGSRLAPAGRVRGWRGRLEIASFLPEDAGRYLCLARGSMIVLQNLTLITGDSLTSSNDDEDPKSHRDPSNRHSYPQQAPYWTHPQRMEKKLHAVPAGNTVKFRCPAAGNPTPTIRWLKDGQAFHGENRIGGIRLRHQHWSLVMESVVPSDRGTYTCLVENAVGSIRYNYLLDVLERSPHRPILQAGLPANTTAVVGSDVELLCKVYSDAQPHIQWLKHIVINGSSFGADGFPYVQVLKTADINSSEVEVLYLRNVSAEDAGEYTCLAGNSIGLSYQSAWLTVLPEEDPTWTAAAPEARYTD
Method in brief: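 BLI, streptavidin sensors loaded with biotinylated receptor ECD. Single-point: ~1 μM crude peptide, PBS pH7.4/0.05% Tween-20/0.01% BSA; association then dissociation in buffer. KD corrected for UPLC-CAD-determined concentration.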

[2] = molecular target: T2, FGF-R3C ECD (Homo sapiens, UniProt P22607); assay: biochemical; set-up: DNA constructs for the extracellular domain (ECD) of human FGF-; HPC4 (C); made in house; host or cells: HEK 293-6E
T2 sequence (P22607 23-375 limits assumed): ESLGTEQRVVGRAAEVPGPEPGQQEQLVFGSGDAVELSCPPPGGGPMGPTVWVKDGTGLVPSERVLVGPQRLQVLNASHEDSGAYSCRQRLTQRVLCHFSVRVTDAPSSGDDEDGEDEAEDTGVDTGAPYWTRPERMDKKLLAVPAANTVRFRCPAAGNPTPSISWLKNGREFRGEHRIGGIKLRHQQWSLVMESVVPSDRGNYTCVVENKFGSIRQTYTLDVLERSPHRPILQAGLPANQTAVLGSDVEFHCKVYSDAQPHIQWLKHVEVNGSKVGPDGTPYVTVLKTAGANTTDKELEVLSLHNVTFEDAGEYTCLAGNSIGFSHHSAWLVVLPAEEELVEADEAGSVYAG
Method in brief: (§1)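 Biolayer interferometry with biotinylated FGF-R ECD on streptavidin biosensors in PBS pH 7.4, 0.05% Tween-20, 0.01% BSA. Multi-concentration: purified peptide dilution series fitted to a multi-point KD model.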

[3] = molecular target: T3, FGF-R1C ECD (Homo sapiens, UniProt P11362); assay: biochemical; set-up: DNA constructs for the extracellular domain (ECD) of human FGF-; HPC4 (C); made in house; host or cells: HEK 293-6E
T3 sequence (P11362 22-376 limits assumed): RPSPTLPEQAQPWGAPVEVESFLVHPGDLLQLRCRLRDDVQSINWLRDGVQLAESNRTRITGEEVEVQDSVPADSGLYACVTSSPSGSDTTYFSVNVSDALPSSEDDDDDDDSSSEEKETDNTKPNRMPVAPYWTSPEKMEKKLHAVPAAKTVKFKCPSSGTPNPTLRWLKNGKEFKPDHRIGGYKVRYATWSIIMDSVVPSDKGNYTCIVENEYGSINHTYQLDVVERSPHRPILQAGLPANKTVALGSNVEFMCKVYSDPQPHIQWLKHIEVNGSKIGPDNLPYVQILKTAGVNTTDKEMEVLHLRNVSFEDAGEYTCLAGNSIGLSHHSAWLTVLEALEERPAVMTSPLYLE
Method in brief: as §1

Structure (SMILES)	Kd [1] [nM]	Kd [2] [nM]	Kd [3] [nM]
CC[C@H](C)[C@@H]1NC(=O)[C@H](CC(N)=O)NC(=O)[C@H](CCCCN)NC(=O)[C@H](Cc2ccc(O)cc2)NC(=O)[C@@H](NC(=O)[C@H](CCSC)NC(C)=O)CSSC[C@@H](C(=O)NCC(=O)N[C@@H](CO)C(=O)NCC(=O)N[C@@H](CO)C(=O)N[C@@H](CC(=O)O)C(=O)N[C@@H](Cc2ccc(O)cc2)C(=O)N[C@@H](CCCCN)C(=O)N[C@@H](CC(=O)O)C(=O)N[C@@H](CC(=O)O)C(=O)N[C@@H](CC(=O)O)C(=O)N[C@@H](CC(=O)O)C(=O)N[C@@H](CCCCN)C(N)=O)NC(=O)[C@H](Cc2ccccc2)NC(=O)[C@H](C(C)C)NC(=O)[C@H](CC(C)C)NC(=O)[C@H](C(C)C)NC(=O)CNC(=O)[C@H](CC(N)=O)NC(=O)[C@H](CC(=O)O)NC1=O (Ac-MCYKNIDNGVLVFCGSGSDYKDDDDK-NH2; disulfide 2-14)	14	> 10000	> 10000
CSCC[C@H](NC(C)=O)C(=O)N[C@H]1CSSC[C@@H](C(=O)NCC(=O)N[C@@H](CO)C(=O)NCC(=O)N[C@@H](CO)C(=O)N[C@@H](CC(=O)O)C(=O)N[C@@H](Cc2ccc(O)cc2)C(=O)N[C@@H](CCCCN)C(=O)N[C@@H](CC(=O)O)C(=O)N[C@@H](CC(=O)O)C(=O)N[C@@H](CC(=O)O)C(=O)N[C@@H](CC(=O)O)C(=O)N[C@@H](CCCCN)C(N)=O)NC(=O)[C@H](Cc2c[nH]cn2)NC(=O)[C@H](CC(C)C)NC(=O)[C@H](C(C)C)NC(=O)[C@H](CCC(N)=O)NC(=O)[C@H](Cc2c[nH]c3ccccc23)NC(=O)[C@H](Cc2ccc(O)cc2)NC(=O)[C@H](CCCNC(=N)N)NC(=O)[C@H](C(C)C)NC(=O)[C@H](Cc2ccc(O)cc2)NC(=O)[C@H](Cc2ccc(O)cc2)NC(=O)[C@H](C)NC(=O)[C@H](CC(=O)O)NC1=O (Ac-MCDAYYVRYWQVLHCGSGSDYKDDDDK-NH2; disulfide 2-15)	36	> 10000	> 10000
CSCC[C@H](NC(C)=O)C(=O)N[C@H]1CSSC[C@@H](C(=O)NCC(=O)N[C@@H](CO)C(=O)NCC(=O)N[C@@H](CO)C(=O)N[C@@H](CC(=O)O)C(=O)N[C@@H](Cc2ccc(O)cc2)C(=O)N[C@@H](CCCCN)C(=O)N[C@@H](CC(=O)O)C(=O)N[C@@H](CC(=O)O)C(=O)N[C@@H](CC(=O)O)C(=O)N[C@@H](CC(=O)O)C(=O)N[C@@H](CCCCN)C(N)=O)NC(=O)[C@H](CCCNC(=N)N)NC(=O)[C@H](Cc2c[nH]cn2)NC(=O)[C@H](Cc2ccccc2)NC(=O)[C@H](CC(C)C)NC(=O)[C@H](CCCCN)NC(=O)[C@H](Cc2ccc(O)cc2)NC(=O)[C@H](Cc2ccc(O)cc2)NC(=O)[C@H](Cc2ccc(O)cc2)NC(=O)[C@H](C(C)C)NC(=O)[C@H](Cc2ccc(O)cc2)NC(=O)[C@H]([C@@H](C)O)NC1=O (Ac-MCTYVYYYKLFHRCGSGSDYKDDDDK-NH2; disulfide 2-14)	3	> 10000	> 10000
CC[C@H](C)[C@@H]1NC(=O)[C@H](Cc2c[nH]cn2)NC(=O)[C@H](CCCCN)NC(=O)[C@H](Cc2ccc(O)cc2)NC(=O)[C@@H](NC(=O)[C@H](CCSC)NC(C)=O)CSSC[C@@H](C(=O)NCC(=O)N[C@@H](CO)C(=O)NCC(=O)N[C@@H](CO)C(=O)N[C@@H](CCC(=O)O)C(=O)N[C@@H](CCC(=O)O)C(=O)NCC(=O)N[C@@H](CO)C(=O)NCC(=O)N[C@@H](CO)C(=O)N[C@@H](CC(=O)O)C(=O)N[C@@H](Cc2ccc(O)cc2)C(=O)N[C@@H](CCCCN)C(=O)N[C@@H](CC(=O)O)C(=O)N[C@@H](CC(=O)O)C(=O)N[C@@H](CC(=O)O)C(=O)N[C@@H](CC(=O)O)C(=O)N[C@@H](CCCCN)C(N)=O)NC(=O)[C@H](CC(C)C)NC(=O)[C@H](CCCCN)NC(=O)[C@H](CCC(N)=O)NC(=O)[C@H]([C@@H](C)CC)NC(=O)[C@H](CCCCN)NC(=O)[C@H](Cc2ccc(O)cc2)NC(=O)[C@H](Cc2c[nH]c3ccccc23)NC(=O)[C@H](CC(C)C)NC1=O (Ac-MCYKHILWYKIQKLCGSGSEEGSGSDYKDDDDK-NH2; disulfide 2-15)	1	> 10000	33
